# Results: patent US7875284B2, “Methods of manufacturing and modifying taxane coatings for implantable medical devices” (Cook Incorporated, priority 2006, dated 2011)
# Experiments:
# [1] = Elution of paclitaxel coatings in aqueous Heptakis-(2,6-di-O-methyl)-β-cyclodextrin (HCD); format: physicochemical; conditions: 0.5% w/w aqueous HCD, 25° C.; within about 1 hour
# Source text: A preferred first elution medium is an aqueous solution comprising 0.1% to about 10% of a cyclodextrin. In one aspect, an elution profile may be obtained by contacting a coated medical device comprising a taxane therapeutic agent with an elution medium comprising a cyclodextrin. A cyclodextrin is a cyclic oligosaccharide formed from covalently-linked glucopyranose rings defining an internal cavity. The diameter of the internal axial cavity of cyclodextrins increases with the number of glucopyranose units in the ring. The size of the glucopyranose ring can be selected to provide an axial cavity selected to match the molecular dimensions of a taxane therapeutic agent. The cyclodextrin is preferably a modified beta-cyclodextrin, such as Heptakis-(2,6-di-O-methyl)-β-cyclodextrin (HCD). Suitable cyclodedtrin molecules include other β-cyclodextrin molecules, as well as γ-cyclodextrin structures.
# Preferably, the cyclodextrin elution medium is formulated to provide distinguishable elution rates for different coating configurations, providing different elution profiles for different solid forms of a taxane therapeutic agent in the coating. […] For example, the elution medium may contact a medical device coating in a continuous flow configuration, or in a batch testing configuration.
# Taxane therapeutic agents typically have different elution profiles in different elution media.
# [2] = for first order rate constants k1, k2 used for the dissolution formula: restated
# Source text: The rate of dissolution of the taxane therapeutic agent can vary based on the elution medium being used and the solid form of the taxane therapeutic agent before dissolution. An elution profile can be obtained by any suitable method that allows for measurement of the release of the taxane therapeutic agent from the coating in a manner that can be measured with a desired level of accuracy and precision. In one embodiment, the elution profile of the release of a taxane therapeutic agent is obtained by contacting the medical device with a suitable elution medium. The elution medium can be formulated to simulate conditions present at a particular point of treatment within a body vessel. For example, an elution medium comprising porcine serum can be used to simulate implantation within a blood vessel. The release of taxane therapeutic agent from the medical device can be measured by any suitable spectrographic method, such as measurement of a UV absorption spectrum of the test fluid after contacting the medical device. Typically, the intensity of absorption at characteristic UV absorption peak, such as about 227 nm, can be correlated to the presence and amount of a taxane therapeutic agent in a sample. The amount of taxane therapeutic agent on the medical device can be determined by contacting the medical device with a suitable elution medium and detecting the amount of taxane therapeutic agent released from the medical device into the elution medium.
# Preferably, the coated medical device can be contacted with a modified porcine serum elution medium at a constant flow rate of 16 mL/min for a desired period of time (e.g., 6-24 hours) sufficient to elute the aPTX present on the stent. The percentage of the taxane therapeutic agent dissolved can be measured as a function of time by monitoring the optical density of the first elution medium at 227 nm after contacting the coated stent, as described above. The modified porcine serum elution medium can be prepared by adding 0.104 mL of a 6.0 g/L Heparin solution to porcine serum at 37° C. and adjusting the pH to 5.6+/−0.3 using a 20% v/v aqueous solution of acetic acid. The elution rate profile of the taxane therapeutic agent can be measured for any desired period, and correlated to the amount of aPTX in the coating. Subsequently, the coated medical device is contacted with a second elution medium comprising 0.3% sodium dodecyl sulfate (SDS) at 25° C. a constant flow rate of 16 mL/min for a suitable time period to elute the dPTX present in the coating. The elution rate profile of the taxane therapeutic agent can be measured for any desired period, and correlated to the amount of aPTX (e.g., by elution in porcine serum) and dPTX (e.g., by subsequent elution in SDS) in the coating.
# [3] = Elution of paclitaxel coatings in 0.3% sodium dodecyl sulfate (SDS); format: physicochemical; conditions: 0.3% SDS, 25° C.; FIGS. 7A-7B
# Source text: Taxane therapeutic agents can have different elution profiles in different elution media. Another suitable elution medium for taxane therapeutic agent is sodium dodecyl sulfate (SDS).
percentage of paclitaxel dissolved/released [1],"time within which substantially all of the paclitaxel eluted ([2]; continuous flow of porcine serum, FIG. 14, Example 6)","half life of elution ([2]; pig, serum)","percentage of the coating dissolved ([2]; porcine serum, 37° C., single-layer coating on vascular stent, within about 6.5 hours (400 minutes))","first order rate constants k1, k2 used for the dissolution formula ([2]; porcine serum)",rate of elution compared with dihydrate paclitaxel [3],first order rate constant of elution ([2]; porcine serum (25° C.) as printed),"percentage of the coating eluted ([2]; porcine serum, 37° C., single-layer coating on vascular stent, after about 24 hours)",Compound
about 80%,less than 5 hours,about 30 minutes,100%,0.0244 min⁻¹,more rapid,,,"CC(=O)O[C@H]1C(=O)[C@@]2(C)[C@H]([C@H](OC(=O)c3ccccc3)[C@]3(O)C[C@H](OC(=O)[C@H](O)[C@@H](NC(=O)c4ccccc4)c4ccccc4)C(C)=C1C3(C)C)[C@]1(OC(C)=O)CO[C@@H]1C[C@@H]2O [amorphous paclitaxel, paclitaxel]"
less than 20%,,,,0.0003 min⁻¹,,about 0.0003 min^−1,less than 40%,"CC(=O)O[C@H]1C(=O)[C@@]2(C)[C@H]([C@H](OC(=O)c3ccccc3)[C@]3(O)C[C@H](OC(=O)[C@H](O)[C@@H](NC(=O)c4ccccc4)c4ccccc4)C(C)=C1C3(C)C)[C@]1(OC(C)=O)CO[C@@H]1C[C@@H]2O [dihydrate paclitaxel, paclitaxel]"
